From patent publication US7307166B1, “Oxpurine nucleosides and their congeners, and acyl, derivatives thereof, for improvement of hematopoiesis” (Wellstat Therapeutics Corporation, priority 1987, dated 2007) come the findings set out here.

Test [1] deals with Normal Balb/C female mice. Put plainly: Hematopoiesis in normal mice. Format: in vivo, mouse. The following applies: for spleen weights: 2.5 Moles/mouse/day i.p.; for number of myelocytes (femoral bone marrow): 2.6 μmoles/mouse daily 4 days. The method, then: Normal, otherwise untreated, female Balb/C mice weighing approximately 20 grams each received a total of 4 or 9 0.4 ml intraperitoneal injections (one per day) of either Tween-80 (0.2%) (controls), palmitoylguanosine ([…]), or palmitoyldeoxyinosine ([…]). Twenty-four hours after the 4th or 9th treatment, groups of 5 or 6 animals from each of the 3 groups were bled and then sacrificed by cervical dislocation. Spleens were removed and weighed, and complete blood cell counts performed.
Normal Balb/C female mice weighing approximately 20 grams each were given a daily 0.4 ml i.p. injection of either physiological saline (controls), palmitoylguanosine (2.6 μmoles/mouse), palmitoyldeoxyguanosine (2.6 μmoles/mouse), monopalmitoylguanosine 2′,3′-acyclic dialcohol (2.6 μmoles/mouse), and palmitoyl-8-bromoguanosine (2.6 μmoles/mouse) for 4 days. On the fifth day all 3 animals in each of the 5 groups were bled and then sacrificed by cervical dislocation. Spleens were removed and weighed, and complete blood cell counts performed. Femoral bone marrow from each mouse was collected and a differential cell count performed on marrow smears.

In test [2] the test system is Balb/C female mice. Nature of the test: Hematopoietic recovery after cyclophosphamide in mice (spleen weight, blood cell counts). Format: in vivo, mouse.
Test [3] has as its system Balb/C female mice. The test is described as above. The following applies: Ex 48: day 7 after CP; 2.5 μmoles/mouse. Format: in vivo, mouse. The method, then: Twenty-four hours later and each day thereafter for a total of 6 days, mice were given a 0.4 ml i.p. injection of either physiological saline (controls), guanine (5 μmoles/mouse/day), or guanosine (5 μmoles/mouse/day). On day 7 all 10 mice in each of the three groups were bled, and then sacrificed by cervical dislocation. Spleens were removed and weighed, and complete blood cell counts performed.
Twenty-four hours later and each day thereafter for a total of 6 days, mice were given a 0.4 ml i.p injection of either physiological saline (controls), Tween 80 (0.2%), guanosine (5 μmoles/mouse/day in 0.2% Tween 80), or 2.5 μmoles per mouse per day of one of the following acylated derivatives of guanosine in 0.2% Tween 80: triacetylguanosine, octanoylguanosine, lauroylguanosine, or palmitoylguanosine. On day 7 following CP administration all 10 animals from each of the 7 groups were bled, and then sacrificed by cervical dislocation. Spleens were removed and weighed, and complete blood counts performed.
Twenty-four hours later treatment was begun. Mice were given a 0.4 ml i.p. injection of either physiological saline (controls), Tween 80 (0.2%), or palmitoylguanosine (5 μmoles/mouse/day in 0.2% Tween 80). The timing of the treatments was varied within the groups. The control group was given saline on days 1-6. The mice receiving Tween 80 were treated either on days 1-4, 4-6 or 1-6. Palmitoylguanosine-treated mice were treated either on days 1-2, 1-4, 3-5, 4-6 or 1-6. If a group of mice received no Tween 80 or palmitoylguanosine on a given day, saline was administered by i.p. injection. Thus, there were 9 groups of 9 animals in all. On day 7 following CP administration all of the animals were bled and then sacrificed by cervical dislocation. Spleens were removed and weighed, and complete blood cell counts performed.
Twenty-four hours later and each day thereafter for a total of 6 days, mice were given a 0.4 ml i.p. injection of either physiological saline (controls), Tween 80 (0.5%), or one of three different doses of octanoylguanosine (0.5, 2.5, or 5 μmoles/mouse/day in 0.5% Tween 80). On day 7 following CP administration all 9 animals from each of the […] were bled and then sacrificed by cervical dislocation. Spleens were removed and weighed, and complete blood cell counts performed.
Twenty-four hours later and each day thereafter for a total of 6 days, mice were given a 0.4 ml i.p. injection of either physiological saline (controls), Tween 80 (0.5%), or octanoylguanosine (5.0 μmoles/mouse/day in 0.5% Tween 80). On day 7 following CP administration all 10 animals from each of the 3 groups were bled and then sacrificed by cervical dislocation. Spleens were removed, weighed, and fixed in 10% formalin for later histological examination. Complete blood cell counts were performed on the collected blood.
Twenty-four hours later and each day thereafter for a total of 6 days, mice were given a 0.4 ml i.p. injection of either physiological saline (controls), benzoylguanosine (2.5 μmoles/mouse/day in 0.2% Tween 80), or palmitoylguanosine (2.5 μmoles/mouse/day in 0.2% Tween 80). On days 7 and 10 following CP administration 8 animals from each of the 3 groups were bled and then were sacrificed by cervical dislocation. Spleens were removed and weighed, and complete blood cell counts performed.
Twenty four hours later and each day thereafter for a total of 4 or 6 days, mice were given a 0.4 ml i.p. injection of either physiological saline (controls), palmitoyldeoxyinosine (2.5 μmoles/mouse), or palmitoyl-xanthosine (2.5 μmoles/mouse). On days 5 and 7 following CP administration 6 of the 12 animals in each of the 3 groups were bled and then sacrificed by cervical dislocation. Spleens were removed and weighed, and complete blood cell counts performed.

For test [4], the system named is IL-3-dependent bone marrow cells. Nature of the test: Apoptosis of IL-3-dependent bone marrow cells deprived of IL-3 (trypan blue exclusion). Format: cell-based, mouse.
Description: Bone marrow cells were obtained by flushing the femurs of three male B6D2F1 mice. The cells were plated at 5.0×10^5/ml in MEM plus 10% fetal calf serum and 25 Units/ml of recombinant IL-3 for 24-48 hours. Non-adherent cells were then separated from adherent cells and maintained for an additional twelve days. IL-3 washed from cells, and cells were plated in MEM plus 10% fetal calf serum in the presence or absence of IL-3 and with or without the addition of palmitoyldeoxyguanosine (10 micrograms per milliliter) or deoxyguanosine (10 micrograms per milliliter). Cells were counted using the trypan blue exclusion method, and the percent of dead cells (trypan blue positive) was determined at 24, 40, 60 and 84 hours following the wash.
The mark [5] stands for this setting: Ex 48: day 5 after CP, 2.5 μmoles/mouse.
[6] abbreviates: Ex 50: day 5 after CP, 2 μmoles/mouse.

Take `CCCCCCCCCCCCCCCC(=O)OC[C@H]1O[C@@H](n2cnc3c(=O)[nH]cnc32)C[C@@H]1O`: the spleen weights result is reported as “significantly greater” in test [1] (Ex 44: day 5, 4 injections) and “significantly greater” in test [1] (Ex 44: day 10, 9 injections, vs Tween 80). The neutrophil counts result is listed as “significantly greater” in test [1] (Ex 44: day 10, 9 injections) and “significantly elevated” in the test on Balb/C female mice [2] (setting [5]). The total leukocyte counts entry in test [1] (Ex 44: day 10, 9 injections) is on record as “significantly greater”; in the test on Balb/C female mice [2] (setting [5]), “significantly elevated”. Also, the spleen weight result in the test with Balb/C female mice [2] (Ex 48: day 5 after CP, 2.5 μmoles/mouse i.p. daily) was “significantly elevated”; in the test with Balb/C female mice [2] (Ex 48: day 7 after CP, 2.5 μmoles/mouse), “significantly increased”; in the test with Balb/C female mice [2] (setting [6]) it was “significantly elevated”. Further, the Neutrophils result in the test on Balb/C female mice [3] was “significantly increased”. Also, the total leukocytes entry in the test on Balb/C female mice [3] was “significantly increased”.

Take `Nc1nc2c(ncn2[C@H]2C[C@H](O)[C@@H](CO)O2)c(=O)[nH]1` [dG, deoxyguanosine]: the “% Dead Cells” value is recorded as 15.5 ± 0.5% in test [4] (24 hr after IL-3 wash, PdG or dG 10 micrograms per milliliter without IL-3, +IL3 = with IL-3); 21.5 ± 3.5 % in test [4] (40 hr after IL-3 wash, 10 micrograms per milliliter); 46.3 ± 10.3% in test [4] (60 hr after IL-3 wash, 10 micrograms per milliliter); 68.3 ± 6.0% in test [4] (84 hr after IL-3 wash, 10 micrograms per milliliter).

With `CCCCCCCCCCCCCCCC(=O)OC[C@H]1O[C@@H](n2c(Br)nc3c(=O)[nH]c(N)nc32)[C@H](O)[C@@H]1O` [palmitoyl-8-bromoguanosine], the “number of myelocytes (femoral bone marrow)” value in test [1] (Ex 56: fifth day) was “significantly greater”.

Regarding “monopalmitoylguanosine 2′,3′-acyclic dialcohol”, the “number of myelocytes (femoral bone marrow)” value in test [1] (Ex 56: fifth day) was “significantly greater”. Moreover, the spleen weight entry in test [1] (Ex 56: fifth day, 2.6 μmoles/mouse i.p. daily 4 days) is “significantly elevated”; in the test with Balb/C female mice [2] (setting [6]), “significantly elevated”.
